Data on 5 molecules can be found in US20220112187A1, “PYRAZOLOPYRIDINE AMINE COMPOUNDS FOR THE TREATMENT OF AUTOIMMUNE DISEASE” (Hoffmann-La Roche Inc., priority 2018, published 2022).

This test has as its target T1, human TLR7 (Homo sapiens, UniProt Q9NYK1).
T1 sequence (Q9NYK1 27-1049): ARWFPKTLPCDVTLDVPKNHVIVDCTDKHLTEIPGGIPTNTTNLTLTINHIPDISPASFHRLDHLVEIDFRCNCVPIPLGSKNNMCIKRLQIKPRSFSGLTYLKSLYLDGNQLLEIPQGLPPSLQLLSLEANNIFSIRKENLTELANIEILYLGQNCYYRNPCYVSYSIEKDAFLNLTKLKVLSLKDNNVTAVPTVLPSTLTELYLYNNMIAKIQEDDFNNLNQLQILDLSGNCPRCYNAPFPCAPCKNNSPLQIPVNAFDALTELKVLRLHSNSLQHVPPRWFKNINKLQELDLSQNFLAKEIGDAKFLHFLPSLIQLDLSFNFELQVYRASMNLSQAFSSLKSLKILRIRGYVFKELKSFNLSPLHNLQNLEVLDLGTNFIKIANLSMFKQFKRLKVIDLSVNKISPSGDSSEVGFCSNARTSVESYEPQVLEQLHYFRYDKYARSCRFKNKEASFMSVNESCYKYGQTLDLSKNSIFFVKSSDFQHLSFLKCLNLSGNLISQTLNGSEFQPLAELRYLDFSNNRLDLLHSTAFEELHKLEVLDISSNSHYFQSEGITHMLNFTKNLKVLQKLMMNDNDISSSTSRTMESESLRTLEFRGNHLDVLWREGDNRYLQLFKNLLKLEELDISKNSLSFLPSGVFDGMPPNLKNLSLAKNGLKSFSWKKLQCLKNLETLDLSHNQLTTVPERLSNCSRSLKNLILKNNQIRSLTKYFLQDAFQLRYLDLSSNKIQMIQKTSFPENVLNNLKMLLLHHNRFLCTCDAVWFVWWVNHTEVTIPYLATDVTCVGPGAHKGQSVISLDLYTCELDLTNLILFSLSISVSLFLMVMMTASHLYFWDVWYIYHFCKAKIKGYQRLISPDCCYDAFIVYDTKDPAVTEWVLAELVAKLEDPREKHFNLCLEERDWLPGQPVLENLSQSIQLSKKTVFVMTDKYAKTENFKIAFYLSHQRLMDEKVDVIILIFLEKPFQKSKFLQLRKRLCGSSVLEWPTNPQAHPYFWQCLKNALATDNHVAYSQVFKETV
Kind of test: HEK293-Blue-hTLR-7 cells assay (SEAP reporter, R848 stimulation). It is filed as cell-based. To be noted: HEK293-Blue-hTLR7 cells, R848 ligand, 20 hrs incubation. An outline of the steps: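 Antagonist mode: HEK293-Blue-hTLR7 cells (250,000–450,000 cells/mL) incubated 20 h at 37° C. with serially diluted compound (1% DMSO) and R848 (20 uM stock). NF-κB/AP-1-driven SEAP in supernatant read with QUANTI-Blue after 2 h at 37° C., absorbance 620–655 nm.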
The molecule `C[C@@H]1CN(c2ccc(C#N)n3nccc23)C[C@H](CN2CCCC3(CCNCC3)C2)O1` [Example 32, 4-[(2S,6R)-2-(2,9-diazaspiro[5.5]undecan-2-ylmethyl)-6-methyl-morpholin-4-yl]pyrazolo[1,5-a]pyridine-7-carbonitrile] showed an IC50 of 410 nM.
`C[C@@H]1CN(c2ccc(C#N)n3nccc23)C[C@H](CN2CC3CCNCC3C2)O1` (stereo partly drawn) [Example 49, 4-[(2S,6R)-2-(1,3,3a,4,5,6,7,7a-octahydropyrrolo[3,4-c]pyridin-2-ylmethyl)-6-methyl-morpholin-4-yl]pyrazolo[1,5-a]pyridine-7-carbonitrile] displayed an IC50 of 180 nM.
As for `C[C@@H]1CN(c2ccc(C#N)n3nccc23)C[C@H](CN2CCC(N)CC2)O1` [Example 17, 4-[(2S,6R)-2-[(4-amino-1-piperidyl)methyl]-6-methyl-morpholin-4-yl]pyrazolo[1,5-a]pyridine-7-carbonitrile], the figure is 89 nM; as for `C[C@@H]1CN(c2ccc(C#N)n3nccc23)C[C@H](CN2CC[C@H](N)[C@H](C)C2)O1` [Example 74, 4-[(2S,6R)-2-[[(3R,4S)-4-amino-3-methyl-1-piperidyl]methyl]-6-methyl-morpholin-4-yl]pyrazolo[1,5-a]pyridine-7-carbonitrile], 89 nM.
Regarding `CC1CNCCN1C[C@H]1CN(c2ccc(C#N)n3nccc23)C[C@@H](C)O1` (single isomer, unassigned) [Example 50B], the midpoint of inhibition, the IC50, lay at 140 nM.
